Legend:
G-actin [1] = biological target: T1, G-actin (Oryctolagus cuniculus, UniProt P68135); assay: Absorption spectra of MC state of probes attached to cysteine-374 on G-actin; format: physicochemical, Rabbit; parameters: Rabbit muscle G-actin was purified according to Marriott; from tissue; host or cells: rabbit muscle; details: probe attached to cysteine-374 of G-actin
Experimental: (§1) MATERIALS AND METHODS. Instrumentation. ^1H NMR spectra were measured on a Brucker Ac 300 MHz; mass spectra were carried out on a Micromass AutoSpec for EI, a Micromass LCT for ESI, or a Bruker REFLEX II for MALDI. Absorption spectra were recorded on a Hewlett-Packard 82152 diode array spectrophotometer or a Shimadzu 1601 PC instrument. Fluorescence spectroscopy was performed on an SLM-AB2 instrument (Thermoelectron, Madison, Wis.) or an ISS PC1 (Champaign, Ill.). Light-directed switching of the probes described in this work was achieved by irradiating the sample (120-1000 μL) with the 365 nm or 546 nm lines of a 100 W Hg-arc lamp (Zeiss).
Rabbit muscle G-actin was purified according to Marriott^14 in G-buffer (2 mM Tris, 0.2 mM CaCl2, and 0.2 mM ATP at pH 8.0). The concentration of G-actin was determined by absorption spectroscopy using an extinction coefficient of 3400 M^−1 cm^−1 at 290 nm^14. 1 ml of a 20 μM solution of G-actin was treated with 20 μL of a 10 mM DMF stock solution of each thiol reactive, spirobenzopyran probe. The reaction mixture was left in the dark for 2 hours at room temperature. The protein was centrifuged for 10 min at 2000 g at 4° and applied to a Bio-Rad PD-10 column equilibrated in G-buffer containing 1 mM DTT. […]
G-Actin: The reaction between a ten-fold molar excess of thiol reactive, spirobenzopyran reagents and 20 μM G-actin at 20° is complete within 2 hours. The concentration of spirobenzopyran in each conjugate is determined from the value of the absorption maximum of the SP form of G-actin conjugates using an extinction coefficient of 35,000 M^−1cm^−1 at 350 nm^15 (FIG. 5A) The absorption spectra of the MC and SP states are not affected by the labeling ratio (spirobenzopyran/G-actin, which varies from 0.6 to 0.8 within the different conjugates. Cysteine-374 is located at an important site on G-actin and has been implicated in several important interactions of actin that include protomer-contacts within F-actin^23, the binding of the actin filament capping proteins Gelsolin and CapG^24 and the motor protein, myosin II^25. […]

BSA = BSA (Bos taurus, UniProt P02769); assay: Absorption spectra of MC probes attached to a cysteine residue on BSA; format: physicochemical; details: MC state, probe attached to a cysteine residue on BSA
Experimental: BSA: BSA conjugates of the spirobenzopyran reagents were prepared in a similar fashion to that described for G-actin yielding similar labeling ratios (FIG. 5C). The absorption spectrum of the five MC probes attached to a cysteine residue on BSA are centered at 544.5 nm (18,365 cm^−1) for compound 6,534 nm ([…]) for compound 12, 520 nm (19,231 cm^−1) for compounds 9; 503.5 nm (19,861 cm^−1) for compound 13. The difference in the energy of the absorption bands for these conjugates of 1496 cm^−1 is a little less than that found between the same probes on G-actin but again is significant in terms of the free energy of complex formation between BSA and its ligands. These confirm the conclusion that the protein matrix is made up of a complex dipolar landscape.

G-actin [2] = biological target: T1, G-actin; assay: Fluorescence excitation and emission spectra of G-actin conjugates; format: physicochemical, Rabbit; parameters: Rabbit muscle G-actin was purified according to Marriott; from tissue; host or cells: rabbit muscle; details: for MC emission maximum of G-actin conjugate: excitation wavelength of 370 nm
Source text: FIG. 3. (A), Technical fluorescence excitation spectrum of the G-actin conjugate of compound 12, showing the S0-S2 (centered at 370 nm) and S0-S1 (centered at 558 nm) excitation bands of MC. The emission was monitored at an emission wavelength of 650 nm. (B), Normalized, technical emission spectra of G-actin conjugates of compounds: a), 3 (624 nm); b), 12 (622 nm); c), 6 (628 nm); d), 13 (630 nm). The emission from the MC state in each conjugate was generated using an excitation wavelength of […].
as §1
Further information on MC-solvent interactions can be derived from studying the fluorescence properties of MC. From a practical standpoint, fluorescence from ^1MC* is best studied by exciting the spirobenzopyran with mid-ultraviolet light (S0-S2 transition)—this condition maintains a uniform population of MC excited state molecules (see Jablonski diagram, FIG. 4A). Contrary to the ground state studies, the inventors find that the average energy of the MC fluorescence is insensitive to the solvent (water, 2-propanol, 1,2-propanediol and acetonitrile; data not shown) and to the location of MC probe on G-actin (FIG. 3B).

[3] = tested on: fertilized xenopus oocytes; assay: Cell division in microinjected fertilized xenopus oocytes; format: in vivo; details: microinjection at the 4 cell stage
Experimental: Light directed activation of constitutively active caged cofilin. Caged cofilin (constitutively active S3A) was prepared independently of Ghosh et al (2004) using our standard NVOC-Cl approach (Marriott, 1994) that is described above for caged CapG. […] Oocytes were microinjected with caged fluorescein dextran (Molecular Probes) and concentrated caged cofilin (5 mg/ml) at the 4 cell stage—we estimate that the intracellular concentration of cofilin is the two injected cells is between 30˜50 μM. Irradiation of all four cells in the embryo with 365 nm light for 2 seconds generated fluorescein and green fluorescence, and by implication cofilin, from their caged precursors in the two injected cells. […] We conclude from these studies that the increased concentration of cofilin generated by uncaging inhibits actin filament dynamics and cytokinesis (Bamburg, 1999).

F-actin = biological target: T2, F-actin (Oryctolagus cuniculus, UniProt P68135); assay: Prodan-F-actin depolymerization kinetics after dilution; format: biochemical; details: Prodan actin emission ratio 465/502 nm, dilution below the critical concentration
T2 construct: Rabbit muscle G-actin is purified according to Marriott (1994); from tissue; host or cells: rabbit muscle

[4] = G-actin conjugate, emission monitored at 650 nm

Chain of BSA (P02769 25-607): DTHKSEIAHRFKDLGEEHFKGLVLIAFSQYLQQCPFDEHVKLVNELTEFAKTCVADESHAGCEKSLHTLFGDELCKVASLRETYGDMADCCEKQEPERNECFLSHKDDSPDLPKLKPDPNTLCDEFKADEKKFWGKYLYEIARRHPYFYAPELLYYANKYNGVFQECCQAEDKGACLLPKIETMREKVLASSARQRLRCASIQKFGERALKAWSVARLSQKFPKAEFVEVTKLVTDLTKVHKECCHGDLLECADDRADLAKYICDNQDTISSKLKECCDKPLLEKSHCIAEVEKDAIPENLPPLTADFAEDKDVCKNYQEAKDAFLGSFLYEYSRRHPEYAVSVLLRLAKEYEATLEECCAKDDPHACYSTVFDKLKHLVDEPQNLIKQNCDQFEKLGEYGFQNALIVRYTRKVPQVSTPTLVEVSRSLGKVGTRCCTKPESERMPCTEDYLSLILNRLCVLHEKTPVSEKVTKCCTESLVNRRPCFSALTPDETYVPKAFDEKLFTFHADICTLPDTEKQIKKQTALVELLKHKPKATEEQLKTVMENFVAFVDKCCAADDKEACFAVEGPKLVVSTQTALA

MC absorption maximum on G-actin (G-actin [1]) | MC absorption spectrum centre on BSA (BSA) | MC emission maximum of G-actin conjugate (G-actin [2]) | Molecule | effect on cell division / cytokinesis [3] | effect on rate of F-actin depolymerization (F-actin) | further results
500 nm | 520 nm | – | 4′-(Bromomethyl)spirobenzopyran [compound 9] | – | – | –
551.5 nm | 503.5 nm | 630 nm | 6′-(Bromomethyl)spirobenzopyran [compound 13] | – | – | –
551.5 nm | – | 622 nm | 6′-(Maleimidomethyl)spirobenzopyran [compound 12] | – | – | S0-S1 excitation band of MC, centre (G-actin [2]; [4]): 558 nm; S0-S2 excitation band of MC, centre (G-actin [2]; [4]): 370 nm
– | – | 624 nm | 8-(Iodomethyl)spirobenzopyran [compound 3] | – | – | –
– | 544.5 nm | 628 nm | CC1(C)c2ccccc2N(CCN2C(=O)C=CC2=O)C12C=Cc1cc([N+](=O)[O-])ccc1O2 (stereo not shown) [compound 6, 1′-(Maleimidoethyl)spirobenzopyran] | – | – | –
– | – | – | wild type cofilin: wild type cofilin, inactivated by phosphorylation at Ser-3 | no effect on cell division | – | –
– | – | – | Constitutively active cofilin: constitutively active S3A cofilin (protein, UniProt P23528 2-166, looked up, variant S3A) Cofilin-1: AAGVAVSDGVIKVFNDMKVRKSSTPEEVKKRKKAVLFCLSEDKKNIILEEGKEILVGDVGQTVDDPYATFVKMLPDKDCRYALYDATYETKESKKEDLVFIFWAPESAPLKSKMIYASSKDAIKKKLTGIKHELQANCYEEVKDRCTLAEKLGGSAVISLEGKPL | inhibited cytokinesis | increases the rate of F-actin depolymerization | –
– | – | – | Uncaged cofilin: caged cofilin after light-directed uncaging (protein, UniProt P23528 2-166, looked up, variant S3A, uncaged after photolysis, caged cofilin after light-directed uncaging) Cofilin-1: AAGVAVSDGVIKVFNDMKVRKSSTPEEVKKRKKAVLFCLSEDKKNIILEEGKEILVGDVGQTVDDPYATFVKMLPDKDCRYALYDATYETKESKKEDLVFIFWAPESAPLKSKMIYASSKDAIKKKLTGIKHELQANCYEEVKDRCTLAEKLGGSAVISLEGKPL | – | restores a substantial fraction of the cofilin activity | –
– | – | – | caged cofilin: constitutively active S3A cofilin caged with 3-5 NVOC groups by the NVOC-Cl approach (protein, UniProt P23528 2-166, looked up, variant S3A, caged with 3-5 NVOC groups) Cofilin-1: AAGVAVSDGVIKVFNDMKVRKSSTPEEVKKRKKAVLFCLSEDKKNIILEEGKEILVGDVGQTVDDPYATFVKMLPDKDCRYALYDATYETKESKKEDLVFIFWAPESAPLKSKMIYASSKDAIKKKLTGIKHELQANCYEEVKDRCTLAEKLGGSAVISLEGKPL | failed to undergo further divisions | did not accelerate the rate of F-actin depolymerization | effect on cell division / cytokinesis ([3]; listed as caged constitutively active cofilin): inhibits cytokinesis

From US20090280060A1, “PHOTOCHROMIC PROBES” (priority 2004, published 2009)
